One data set concerns the target hERG channel (Homo sapiens, UniProt Q12809). The data set can be described thus: Safety pharmacology test: hERG channel inhibitory effect. The settings on record: human Ether-a-go-go Related Gene channel. It is filed as biochemical. As to the method:
For the safety pharmacology test, evaluation of a human Ether-a-go-go Related Gene (hereinafter referred to as hERG) channel inhibitory effect was carried out. The hERG channel inhibitory effect was evaluated using a modified method described in Combinatorial Chemistry & High Throughput Screening, 12, 1, 78-95 (2009).
In general terms: Block of hERG is tested as a sign of cardiac risk.

The test system of the next data set is IL-1β p17. The experiment in a line: Rat central nervous system IL-1β production test. It is filed as in vivo. The settings on record: Wistar rat, oral, cerebrospinal fluid, LPS + BzATP in cisterna magna, read-out: percent inhibition of IL-1β p17 relative to the solvent-treated group. As to the method: Under isoflurane anesthesia, 10 to 14 weeks-old male Wistar rats were administered with 12.5 μg/5 μL of LPS (SIGMA, L2880) in the cisterna magna, followed by an oral administration of the test compound 2 hours later. After an additional hour, 50 μg/5 μL of BzATP(2′(3′)-O-(4-benzoylbenzoyl)adenosine 5′-triphosphate triethylammonium salt, SIGMA, B6396) was administered into the cisterna magna, and cerebrospinal fluid was collected after 30 minutes. The cerebrospinal fluid was subjected to Western blotting using an anti-IL-1β antibody (Millipore, AB1832P) to quantify IL-1β p17, and the percent inhibition relative to the solvent-treated group was calculated.
The percent inhibition of IL-1β p17 for Examples 1, 2(1), 3(1) and 124, which are compounds of formula (I), relative to the solvent-treated group is shown in the following table. In the table, Dose refers to the dosage of test compounds; Ex1, Ex2(1), Ex3(1), and Ex124 refer to Example 1, Example 2(1), Example 3(1); and Example 124; and “NT” denotes the unmeasured case.

The test system of another data set is 3T3. The experiment in a line: In vitro phototoxicity test (3T3 NRU). The class given is cell-based. Conditions: In vitro 3T3 NRU Phototoxicity Test, OECD 432, ICH S10. From the text:
The evaluation of in vitro phototoxicity tests was based on ICH S10: Guidelines for Evaluation of Photosafety of Drugs (Notification No. 0521-1) using a method described in OECD Guidelines for the Testing of Chemicals 432: In vitro 3T3 NRU Phototoxicity Test, 2019).

The subject of data set [1] is TNF-α production in THP-1 cells. The experiment in a line: TNF-α production inhibition test. Conditions: Homo sapiens; PMA-treated THP-1 cells, LPS 50 ng/mL, 2 hours, TNF-α in supernatant by ELISA. It is filed as cell-based. As to the method:
PMA (phorbol myristate acetate, SIGMA, P1585) was added to THP-1 cells in an amount of 50 ng/mL to culture the cells for 2 days at 37° C. The culture medium was replaced with a serum-free RPMI-1640 medium, and a compound with a known concentration was added thereto to culture the cells at 37° C. for 15 minutes. LPS (Lipopolysaccharide SIMGA, L2880) was added so that each final concentration becomes 50 ng/mL, followed by culturing at 37° C. for 2 hours. The supernatants were collected to measure the concentration of TNF-α by ELISA (DuoSet ELISA human TNF-α, R&D Systems, DY210). The TNF-α concentrations were plotted against log concentrations of test compounds, and an IC50 value was calculated by sigmoid Emax model nonlinear regression analysis.

The next data set addresses T1, NLRP3 inflammasome (Homo sapiens, UniProt Q96P20).
T1 construct: endogenous in cells; host or cells: THP-1 cells (PMA-differentiated, stimulated with LPS and ATP)
The experiment in a line: THP-1 IL-1β production inhibition test. It is filed as cell-based. Conditions: PMA-treated THP-1 cells, LPS 50 ng/mL + ATP 5 mM, 2 hours, IL-1β in supernatant by ELISA. An outline of the steps:
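THP-1 cells differentiated with PMA 50 ng/mL for 2 days, then stimulated with LPS 50 ng/mL and ATP 5 mM (final) for 2 h at 37 °C. Supernatant IL-1β measured by ELISA; IC50 from sigmoid Emax nonlinear regression against log compound concentration.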

T1 sequence (Q96P20 whole entry): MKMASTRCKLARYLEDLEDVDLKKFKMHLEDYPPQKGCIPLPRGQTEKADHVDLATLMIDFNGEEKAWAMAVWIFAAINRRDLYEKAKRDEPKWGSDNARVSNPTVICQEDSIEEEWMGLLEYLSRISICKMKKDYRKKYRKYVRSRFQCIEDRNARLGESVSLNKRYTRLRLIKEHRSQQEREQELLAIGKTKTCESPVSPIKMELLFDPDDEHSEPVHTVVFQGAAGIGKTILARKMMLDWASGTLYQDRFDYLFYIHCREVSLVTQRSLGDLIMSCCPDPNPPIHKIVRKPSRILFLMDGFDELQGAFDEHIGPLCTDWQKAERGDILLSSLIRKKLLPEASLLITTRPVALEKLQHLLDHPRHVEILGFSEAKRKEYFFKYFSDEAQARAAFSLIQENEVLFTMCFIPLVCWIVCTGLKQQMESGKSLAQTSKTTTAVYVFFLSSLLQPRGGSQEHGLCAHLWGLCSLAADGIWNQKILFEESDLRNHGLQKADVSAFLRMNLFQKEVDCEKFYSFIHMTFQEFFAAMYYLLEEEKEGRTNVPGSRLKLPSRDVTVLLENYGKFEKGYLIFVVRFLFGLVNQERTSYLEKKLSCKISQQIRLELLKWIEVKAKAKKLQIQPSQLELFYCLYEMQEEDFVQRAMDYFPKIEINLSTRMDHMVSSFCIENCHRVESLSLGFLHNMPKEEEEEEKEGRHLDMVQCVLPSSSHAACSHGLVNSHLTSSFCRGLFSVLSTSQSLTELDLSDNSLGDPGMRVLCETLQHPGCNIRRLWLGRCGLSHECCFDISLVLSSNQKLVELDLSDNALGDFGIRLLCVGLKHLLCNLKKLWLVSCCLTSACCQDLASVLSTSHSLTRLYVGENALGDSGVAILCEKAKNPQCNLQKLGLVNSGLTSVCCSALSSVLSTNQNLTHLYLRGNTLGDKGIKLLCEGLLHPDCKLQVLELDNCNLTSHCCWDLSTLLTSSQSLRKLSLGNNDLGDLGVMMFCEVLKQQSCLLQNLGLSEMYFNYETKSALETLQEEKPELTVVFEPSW
hERG channel, sequence (Q12809 whole entry): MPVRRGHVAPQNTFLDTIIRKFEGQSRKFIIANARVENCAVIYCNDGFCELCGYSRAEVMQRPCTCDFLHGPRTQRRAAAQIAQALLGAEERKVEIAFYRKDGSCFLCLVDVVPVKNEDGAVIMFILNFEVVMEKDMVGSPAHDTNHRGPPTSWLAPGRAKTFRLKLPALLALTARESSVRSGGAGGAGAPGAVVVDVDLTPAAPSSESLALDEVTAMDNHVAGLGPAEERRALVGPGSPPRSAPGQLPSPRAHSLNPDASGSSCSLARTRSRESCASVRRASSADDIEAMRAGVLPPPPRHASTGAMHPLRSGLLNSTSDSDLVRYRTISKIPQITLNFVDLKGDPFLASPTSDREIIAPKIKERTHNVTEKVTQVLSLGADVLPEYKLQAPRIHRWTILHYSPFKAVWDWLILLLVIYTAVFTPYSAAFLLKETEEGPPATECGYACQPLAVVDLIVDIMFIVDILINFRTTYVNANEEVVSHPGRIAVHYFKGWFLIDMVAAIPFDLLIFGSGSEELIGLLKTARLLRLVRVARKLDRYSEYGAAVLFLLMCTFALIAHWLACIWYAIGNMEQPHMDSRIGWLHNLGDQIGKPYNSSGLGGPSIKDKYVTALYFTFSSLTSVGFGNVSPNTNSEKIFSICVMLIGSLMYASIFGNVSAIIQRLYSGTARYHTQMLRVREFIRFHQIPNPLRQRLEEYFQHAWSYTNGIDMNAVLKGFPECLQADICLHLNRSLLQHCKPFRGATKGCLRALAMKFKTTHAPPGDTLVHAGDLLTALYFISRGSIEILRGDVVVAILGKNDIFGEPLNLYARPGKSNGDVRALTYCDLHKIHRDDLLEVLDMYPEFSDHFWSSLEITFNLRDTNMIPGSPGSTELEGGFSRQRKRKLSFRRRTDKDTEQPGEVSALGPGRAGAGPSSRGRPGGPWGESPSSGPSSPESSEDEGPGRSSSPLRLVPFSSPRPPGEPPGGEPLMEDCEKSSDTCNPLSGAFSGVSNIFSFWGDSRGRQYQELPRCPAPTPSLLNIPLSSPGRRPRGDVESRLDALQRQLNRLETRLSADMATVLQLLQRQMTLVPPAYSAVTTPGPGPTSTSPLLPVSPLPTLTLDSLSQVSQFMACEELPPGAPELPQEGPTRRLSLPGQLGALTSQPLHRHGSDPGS

In the case of `CN1CCC[C@@H](Nc2nnc(-c3ccc(OC(F)F)cc3O)c3c2COCC3)C1` [Example 124, 5-(difluoromethoxy)-2-(4-{[(3R)-1-methylpiperidin-3-yl]amino}-7,8-dihydro-5H-pyrano[3,4-d]pyridazin-1-yl)phenol], the IC50 – broadly, the concentration needed to halve the response being measured – on hERG channel is at least 10000 nM; in data set [1] it was at least 10000 nM; on NLRP3 inflammasome, 0.62 nM. Besides, the inhibition (in general, the change of the read-out against control, counted positive when it falls) at 0.1 mg/kg in the data set with IL-1β p17 (Dose 0.1 mg/kg) was found to be 55%. In addition, the inhibition at 0.3 mg/kg with IL-1β p17 came out at 49%. Further, the inhibition at 1 mg/kg with IL-1β p17 was determined as 96%. The phototoxic effect entry in the data set with 3T3 was “no phototoxic effect”.

`Oc1cc(C(F)(F)F)ccc1-c1nnc(N[C@@H]2CCCC[C@H]2O)c2c1CCOC2` [Example 2(1), 2-(4-{[(1R,2R)-2-hydroxycyclohexyl]amino}-7,8-dihydro-5H-pyrano[3,4-d]pyridazin-1-yl)-5-(trifluoromethyl)phenol] had an IC50 against hERG channel of at least 10000 nM. Moreover, in the data set with IL-1β p17, the inhibition at 0.3 mg/kg worked out at 81%, the inhibition at 1 mg/kg came out at 75% and the inhibition at 3 mg/kg was 88%. Moreover, in the data set on 3T3, the phototoxic effect entry was “no phototoxic effect”. The IC50 in data set [1] is at least 10000 nM. Also, the IC50 at NLRP3 inflammasome came to 3.4 nM.

The molecule `Oc1cc(C(F)(F)F)ccc1-c1nnc(N[C@@H]2CCCC[C@H]2O)c2c1CCCC2` [Example 1, 2-(4-{[(1R,2R)-2-hydroxycyclohexyl]amino}-5,6,7,8-tetrahydrophthalazin-1-yl)-5-(trifluoromethyl)phenol] came in with an IC50 on hERG channel of at least 10000 nM. Besides, in the data set with IL-1β p17, the inhibition at 0.3 mg/kg is -12%, the inhibition at 1 mg/kg stood at 74% and the inhibition at 3 mg/kg is 84%. Moreover, the phototoxic effect entry with 3T3 was “no phototoxic effect”. Besides, the 50% inhibitory concentration (IC50) in data set [1] is at least 10000 nM. Moreover, on NLRP3 inflammasome, the IC50 was found to be 10 nM.

Consider `Oc1cc(OC(F)(F)F)ccc1-c1nnc(N[C@@H]2CCCC[C@H]2O)c2c1CCOC2` [Example 3(1), 2-(4-{[(1R,2R)-2-hydroxycyclohexyl]amino}-7,8-dihydro-5H-pyrano[3,4-d]pyridazin-1-yl)-5-(trifluoromethoxy)phenol], for which, on hERG channel, the IC50 was at least 10000 nM. Moreover, in the data set with IL-1β p17, the inhibition at 0.3 mg/kg was determined as 75%, the inhibition at 1 mg/kg worked out at 82% and the inhibition at 3 mg/kg worked out at 72%. Also, the phototoxic effect result with 3T3 is recorded as “no phototoxic effect”. Besides, the IC50 in data set [1] was at least 10000 nM. Moreover, the IC50 at NLRP3 inflammasome was determined as 2.2 nM.

For `CN1Cc2c(N[C@@H]3CCCC[C@H]3O)nnc(-c3ccc(C(F)(F)F)cc3O)c2C1` [Example 99, 2-(4-{[(1R,2R)-2-hydroxycyclohexyl]amino}-6-methyl-6,7-dihydro-5H-pyrrolo[3,4-d]pyridazin-1-yl)-5-(trifluoromethyl)phenol], the values for the IC50 (in data set [1]; at NLRP3 inflammasome) were at least 10000 nM and 16 nM, respectively.
